Each compound was assayed against T1, hDGAT1 (Homo sapiens, UniProt O75907) (assay: Cell based hDGAT1 inhibitory activity in HEK293H cells (13C-oleic acid to triolein, LC-MS)). Settings: not given.
T1 construct: endogenous in cells; host or cells: HEK293H cells
T1 sequence (O75907 1-488): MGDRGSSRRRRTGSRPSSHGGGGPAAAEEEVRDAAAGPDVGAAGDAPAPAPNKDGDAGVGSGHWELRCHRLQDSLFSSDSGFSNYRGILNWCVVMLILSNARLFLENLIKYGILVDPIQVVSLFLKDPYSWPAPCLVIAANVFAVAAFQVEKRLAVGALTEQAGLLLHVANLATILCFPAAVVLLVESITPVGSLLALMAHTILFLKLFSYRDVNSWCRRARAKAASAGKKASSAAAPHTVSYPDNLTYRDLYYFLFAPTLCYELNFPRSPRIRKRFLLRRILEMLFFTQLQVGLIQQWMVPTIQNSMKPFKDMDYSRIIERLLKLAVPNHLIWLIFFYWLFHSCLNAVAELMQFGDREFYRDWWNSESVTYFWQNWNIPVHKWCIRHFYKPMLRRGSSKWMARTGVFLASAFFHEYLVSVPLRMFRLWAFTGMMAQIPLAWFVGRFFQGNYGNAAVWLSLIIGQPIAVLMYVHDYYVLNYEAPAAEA
Procedure: Measurement of Cell Based hDGAT1 Inhibitory Activity:
HEK293H cells were seeded in a 96-well poly-D-lysine plate at a density of 80000 cells per well. Following day, cells were washed with assay buffer-DMEM high glucose supplemented with 25 mM Hepes (pH7.5) carrying 0.25% fatty acid-free bovine serum. The cells were starved in assay buffer at 37° C./5% CO2 followed by removal of media and treatment with appropriate concentrations of the test compound at a final concentration of 0.2% DMSO for 20 min. 13C-Oleic acid pre-complexed with BSA (300 uM) was added and cells were incubated further at […]/5% CO2 for 120 min. The supernatant was removed and the cells were allowed to air dry briefly. The extraction solvent (90% isopropyl alcohol and 10% tetrahydrofuran with 20 nM of the internal standard [1,3-di-heptadecanoyl-2-(10Z-heptadecanoyl)-sn-glycerol-d5) was added to the cells, and allowed to shake at room temperature for 15 min. The extract was then transferred to glass vials for LC-MS analysis. An Applied Biosystems API3200 LC/MS system interfaced with a triplequadrupole mass spectrophotometer through a Turbo ion spray source was employed for the LC separation of the analytes using a Hi-Purity ADVANCE column eluted with 10 mM ammonium formate in IPA-H2O (80:20) at a flow rate of 0.4 mL/min. A characteristic in-source fragment ion m/z 639.7 formed from the precursor ion ^13C-54-triolein (m/z 956.8, ammonium adduct) at a collision energy of 30 and declustering potential 70 was monitored. IC50 values of the compounds were determined based on percent inhibition calculated on the basis of area ratio of product (TG) and internal standard (IS).

Compared with `O=C(Nc1ccc(N2CCC3(CC2)CC(CO)C3)nc1)c1nnc(Nc2ccc(F)c(F)c2)o1` [Example E1, 5-(3,4-difluoroanilino)-N-[6-[2-(hydroxymethyl)-7-azaspiro[3.5]nonan-7-yl]-3-pyridyl]-1,3,4-oxadiazole-2-carboxamide], `O=C(Nc1ccc(N2CCC3(CC2)CC(O)C3)nc1)c1nnc(Nc2ccc(F)c(F)c2)o1` [Example D5] is 2.5-fold lower in IC50: 10 nM for the first, 4 nM for the second.

First: O=C(Nc1ccc(N2CCC3(CC2)CC(F)(F)C3)nc1)c1nnc(Nc2ccc(OCC(F)(F)F)nc2)o1 [Example D2]
Second: CC1CC2(CCN(c3ccc(NC(=O)c4nnc(Nc5ccc(OCC(F)(F)F)nc5)o4)cn3)CC2)C1 [Example D4]
The IC50 of the first is 2.5-fold higher: 64 nM for the first, 26 nM for the second. The second is the more potent here.

`O=C(Nc1ccc(C2CCC3(CC2)CC3C(=O)O)cc1)c1nnc(Nc2ccc(F)c(F)c2)o1` (stereo not shown) [Example B14, 6-[4-[[5-(3,4-difluoroanilino)-1,3,4-oxadiazole-2-carbonyl]amino]phenyl] spiro [2.5] octane-2-carboxylic acid] and `O=C(Nc1ccc(C2CCC3(CC2)CC3C(=O)O)cc1)c1nnc(Nc2cccc(Cl)c2)o1` (stereo not shown) [Example B16, 6-[4-[[5-(3-chloroanilino)-1,3,4-oxadiazole-2-carbonyl]amino]phenyl] spiro [2.5] octane-2-carboxylic acid] are within 1.5-fold of each other in IC50: 21 nM for the first, 16 nM for the second.

Compared with `O=C(Nc1ccc(N2CCC3(CC2)CC(C(=O)N2CCC(O)CC2)C3)nc1)c1nnc(Nc2ccc(F)c(F)c2)o1` [Example C6], `O=C(Nc1ccc(N2CCC3(CC2)CC(C(=O)N2CC(O)C2)C3)nc1)c1nnc(Nc2ccc(F)c(F)c2)o1` [Example C8] is 3-fold lower in IC50: 33 nM for the first, 11 nM for the second. The second is the more potent here.

Going from `NC(=O)CC1CCC2(CC1)CCN(c1ccc(NC(=O)c3nnc(Nc4ccc(F)c(F)c4)o3)cn1)CC2` [Example F2, N-[6-[3-(2-amino-2-oxo-ethyl)-9-azaspiro[5.5]undecan-9-yl]-3-pyridyl]-5-(3,4-difluoroanilino)-1,3,4-oxadiazole-2-carboxamide] to `NC(=O)C1CC2(CCN(c3ccc(NC(=O)c4nnc(Nc5ccc(F)c(F)c5)o4)cn3)CC2)C1` [Example F1, N-[6-(2-carbamoyl-7-azaspiro[3.5]nonan-7-yl)-3-pyridyl]-5-(3,4-difluoroanilino)-1,3,4-oxadiazole-2-carboxamide], the IC50 rises from 19 nM to 44 nM (2.3-fold). The first is the more potent here.

`COC(=O)C1CC2(CCC(c3ccc(NC(=O)c4nnc(Nc5ccc(F)c(F)c5)o4)cc3)CC2)C1` (stereo not shown) [Example A9, methyl 7-[4-[[5-(3,4-difluoroanilino)-1,3,4-oxadiazole-2-carbonyl]amino]phenyl]spiro[3.5]nonane-2-carboxylate] and `CCOC(=O)C1CC2(CCN(c3ccc(NC(=O)c4nnc(Nc5ccc(F)c(F)c5)o4)cn3)CC2)C1` [Example A12, ethyl 7-[5-[[5-(3,4-difluoroanilino)-1,3,4-oxadiazole-2-carbonyl]amino]-2-pyridyl]-7-azaspiro[3.5]nonane-2-carboxylate] are within 1.5-fold of each other in IC50: 31 nM for the first, 22 nM for the second.

First: O=C(Nc1ccc(N2CCC3(CC2)CC(C(=O)O)C3)nc1)c1nnc(Nc2ccc(OCC(F)(F)F)nc2)o1 [Example B13, 7-[5-[[5-[[6-(2,2,2-trifluoroethoxy)-3-pyridyl]amino]-1,3,4-oxadiazole-2-carbonyl]amino]-2-pyridyl]-7-azaspiro[3.5]nonane-2-carboxylic acid]
Second: O=C(Nc1ccc(N2CCC3(CC2)CC(O)C3)nc1)c1nnc(Nc2ccc(OCC(F)(F)F)nc2)o1 [Example D6]
The IC50 of the first is 11-fold higher: 47 nM for the first, 4.2 nM for the second.

Going from `O=C(Nc1ccc(N2CCC3(CC2)CC3C(=O)O)nc1)c1nnc(Nc2ccc(OCC(F)(F)F)nc2)o1` (stereo not shown) [Example B21, 6-[5-[[5-[[6-(2,2,2-trifluoroethoxy)-3-pyridyl]amino]-1,3,4-oxadiazole-2-carbonyl]amino]-2-pyridyl]-6-azaspiro [2.5] octane-2-carboxylic acid] to `O=C(Nc1ccc(C2CCC3(CC2)CC3C(=O)O)cc1)c1nnc(Nc2ccc(OCC(F)(F)F)nc2)o1` (stereo not shown) [Example B15, 6-[4-[[5-[[6-(2,2,-trifluoroethoxy)-3-pyridyl]amino]-1,3,4-oxadiazole-2-carbonyl]amino]phenyl] spiro [2.5] octane-2-carboxylic acid], the IC50 falls from 64 nM to 10 nM (6.4-fold). The second is the more potent here.

Compared with `O=C(Nc1ccc(N2CCC3(CC2)CC(F)(F)C3)nc1)c1nnc(Nc2ccc(F)c(F)c2)o1` [Example D1, 5-(3,4-difluoroanilino)-N-[6-(2,2-difluoro-7-azaspiro[3.5]nonan-7-yl)-3-pyridyl]-1,3,4-oxadiazole-2-carboxamide], `CC1CC2(CCN(c3ccc(NC(=O)c4nnc(Nc5ccc(F)c(F)c5)o4)cn3)CC2)C1` [Example D3] is 2.7-fold lower in IC50: 85 nM for the first, 32 nM for the second. The second is the more potent here.

In the case of `O=C(Nc1ccc(N2C3CCC2CC2(CC(C(=O)O)C2)C3)nc1)c1nnc(Nc2ccc(F)c(F)c2)o1` (stereo not shown) [Example B31, 8-[5-[[5-(3,4-difluoroanilino)-1,3,4-oxadiazole-2-carbonyl]amino]-2-pyridyl] spiro [8-azabicyclo [3.2.1]octane-3,3′-cyclobutane]-1′-carboxylic acid], the IC50 is reported as 37 nM.

Same assay, conditions: 1 uM

In the case of `CC1(C)CN(c2ccc(C3CCC4(CC3)CC4C(=O)O)cc2)C(=O)c2c(N)ncnc21` (stereo not shown) [Example L5, 6-[4-(4-amino-8,8-dimethyl-5-oxo-7H-pyrido[4,3-d]pyrimidin-6-yl)phenyl]spiro[2.5]octane-2-carboxylic acid], the “HEK293H cell % Inhibition at 1 uM” value is reported as “No inhibition at 1 μM”.

Same assay, conditions: HEK293-H, 1 uM

Compared with `CC1CCCCN1C(=O)C1CC2(CCN(c3ccc(NC(=O)c4nnc(Nc5ccc(F)c(F)c5)o4)cn3)CC2)C1` (stereo not shown) [Example C2], `O=C(Nc1ccc(N2CCC3(CC2)CC(C(=O)N2CCCC2)C3)nc1)c1nnc(Nc2ccc(F)c(F)c2)o1` [Example C1, 5-(3,4-difluoroanilino)-N-[6-[2-(pyrrolidine-1-carbonyl)-7-azaspiro[3.5]nonan-7-yl]-3-pyridyl]-1,3,4-oxadiazole-2-carboxamide] is lower in inhibition at 1 µM: 88% for the first, 86% for the second.

First: COC1CCN(C(=O)C2CC3(CCN(c4ccc(NC(=O)c5nnc(Nc6ccc(F)c(F)c6)o5)cn4)CC3)C2)CC1 [Example C5]
Second: O=C(Nc1ccc(N2CCC3(CC2)CC(C(=O)N2CCOCC2)C3)nc1)c1nnc(Nc2ccc(F)c(F)c2)o1 [Example C3]
The inhibition at 1 µM of the first is higher: 90% for the first, 84% for the second.

Going from `Cn1nnnc1C1CC2(CCN(c3ccc(NC(=O)c4nnc(Nc5ccc(F)c(F)c5)o4)cn3)CC2)C1` [Example D9] to `O=C(Nc1ccc(N2CCC3(CC2)CC(F)C3)nc1)c1nnc(Nc2ccc(F)c(F)c2)o1` [Example D7], the inhibition at 1 µM falls from 91% to 87%.

First: O=C(Nc1ccc([C@H]2CC[C@]3(CC2)CC3C(=O)O)nc1)c1nnc(Nc2ccccc2)o1 (stereo partly drawn) [Example B24, Trans-6-[5-[(5-anilino-1,3,4-oxadiazole-2-carbonyl)amino]-2-pyridyl] spiro [2.5] octane-2-carboxylic acid]
Second: O=C(Nc1ccc([C@H]2CC[C@]3(CC2)CC3C(=O)O)nc1)c1nnc(Nc2ccc(F)c(F)c2)o1 (stereo partly drawn) [Example B26, Trans-6-[5-[[5-(3,4-difluoroanilino)-1,3,4-oxadiazole-2-carbonyl]amino]-2-pyridyl] spiro [2.5] octane-2-carboxylic acid]
The inhibition at 1 µM of the first is higher: 49% for the first, 37% for the second.

First: O=C1CCN(C(=O)C2CC3(CCN(c4ccc(NC(=O)c5nnc(Nc6ccc(F)c(F)c6)o5)cn4)CC3)C2)CC1 [Example C9]
Second: O=C(Nc1ccc(N2CCC3(CC2)CC(C(=O)NCC(F)(F)F)C3)nc1)c1nnc(Nc2ccc(F)c(F)c2)o1 [Example C4]
The inhibition at 1 µM of the first is higher: 92% for the first, 84% for the second.

Going from `Nc1ncnc2ncn(-c3ccc(N4CCC5(CC4)CC(F)C5)nc3)c(=O)c12` [Example K4] to `O=C(Nc1ccc(N2CCC3(CC2)CC(F)C3)nc1)c1nnc(Nc2ccc(OCC(F)(F)F)nc2)o1` [Example D8], the inhibition at 1 µM rises from 19% to 77%.

`CC1(C)CN(c2ccc(C3CCC4(CCC(CC(=O)O)CC4)CC3)cc2)C(=O)c2c(N)ncnc21` (stereo not shown) [Example L6] gave an inhibition at 1 µM of 3%.

The compounds below were run against T2, recombinant human DGAT1 (hDGAT1) (Homo sapiens, UniProt O75907) (assay: Membrane-based recombinant hDGAT1 inhibitory activity using LCMS method (Method A)). Settings: Sf9 membranes expressing hDGAT1.
T2 construct: host or cells: Sf9 insect cells (baculovirus expression system), used as membrane preparation
T2 sequence (O75907 1-488): T1 sequence (O75907 1-488)
Assay type: biochemical

For `Nc1ncnc2c1C(=O)N(C1CCC3(CCC(CC(=O)O)CC3)CC1)CCO2` (stereo not shown) [Example J2, 2-[9-(4-amino-5-oxo-7,8-dihydropyrimido[5,4-f][1,4]oxazepin-6-yl)spiro[5.5]undecan-3-yl]acetic acid], the IC50 was 2500 nM.
